≈ marks a conversion by molar mass, not a printed value.
Assays:
[1] = test system: E. faecium E2297; assay: MIC assay; assay type: cell-based, Enterococcus faecium; details: E. faecium E2297, VanA
Procedure, shortened: (§1)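 Inoculum 10^6 CFU/mL in TSB/0.002% p80 (Enterococcus, VISA, VRSA pre-grown to 0.5 McFarland). 2-fold dilutions, 1:1 with inoculum. 37 °C × 24 h, 600 rpm, sealed breathable membrane. MIC median of ≥3.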

[2] = test system: E. faecium E2365; assay: MIC assay; assay type: cell-based, Enterococcus faecium; details: E. faecium E2365, VanB
Procedure, shortened: as §1

[3] = test system: E. faecium E7329; assay: MIC assay; assay type: cell-based, Enterococcus faecium; details: E. faecium E7329, VanA
Procedure, shortened: as §1

[4] = test system: E. faecium E7403; assay: MIC assay; assay type: cell-based, Enterococcus faecium; details: E. faecium E7403, VanB
Procedure, shortened: as §1

[5] = test system: E. faecium E155; assay: microbe, parasite or virus in culture; assay type: cell-based, Enterococcus faecium
Procedure, shortened: as §1

[6] = test system: E. faecium E7314; assay: microbe, parasite or virus in culture; assay type: cell-based, Enterococcus faecium
Procedure, shortened: as §1

[7] = test system: E. faecalis E7406; assay: microbe, parasite or virus in culture; assay type: cell-based, Enterococcus faecalis; details: E. faecalis E7406 VRE (VanB)
Procedure, shortened: as §1

[8] = test system: E. faecalis E7604; assay: microbe, parasite or virus in culture; assay type: cell-based, Enterococcus faecalis; details: E. faecalis E7604 VRE (vanB)
Procedure, shortened: as §1

[9] = test system: E. faecium E0338; assay: MIC assay; assay type: cell-based, Enterococcus faecium; details: E. faecium E0338, VanA
[10] = test system: E. faecium E1441; assay: MIC assay; assay type: cell-based, Enterococcus faecium; details: E. faecium E1441, VanA
[11] = test system: E. faecium E7312; assay: MIC assay; assay type: cell-based, Enterococcus faecium; details: E. faecium E7312, VanA
[12] = test system: panel of 31 vancomycin-resistant E. faecium strains; assay: MIC assay, MIC50/MIC90 over panel; assay type: cell-based, Enterococcus faecium; details: panel of 31 vancomycin-resistant E. faecium strains
Method: The antibacterial activity of the compounds was tested against a panel of bacteria, including Gram-positive bacteria (S. aureus ATCC29213, S. aureus USA300, S. aureus LIM-2, NR-45881, S. aureus HIP13419, NR-46413, E. faecium E155, E. faecium E7314, E. faecium E980, E. faecalis E1246, E. faecalis E7406 and S. pneumonia 153). The antibacterial activity of the compounds was further tested against S. aureus NY-155, NR-46236, S. aureus HIP12864, NR-46074, S. aureus 880 (BR-VRSA), NR-49120, E. faecalis E1246, E. faecalis E7604, as well as some Gram-negative bacteria (Escherichia coli and Klebsiella pneumoniae). Minimum inhibitory concentrations (MICs) in μg/mL were performed according to the CLSI guidelines. From glycerol stocks, bacterial strains were cultured on blood agar plates and incubated at 37° C. for 18 h. A single colony was transferred to tryptic soy broth (TSB) with 0.002% polysorbate 80 (p80). For the Enterococcus, VISA and VRSA strains, the cultures were grown at 37° C. until the optical density of the suspension reached a level equivalent to the 0.5 McFarland standard. The bacterial suspensions were diluted in TSB with 0.002% p80 to reach a bacterial cell density of 10^6 CFU/mL. In case of the other (vancomycin-sensitive) S. aureus strains, the direct colony suspension method was used. For these strains, after transfer of the colonies to TSB with 0.002% p80, they were immediately diluted to 10^6 CFU/mL, instead of incubated prior to this dilution. In the case of S. pneumonia, direct colony suspension was used by immediately suspending multiple colonies from fresh blood agar plates in TSB+0.002% p80 to an OD600 of 0.5 and subsequent dilution to 10^6 CFU mL^−1 in TSB+0.002% p80+5% lysed horse blood. Antibiotic dilutions for this strains were also made in TSB+0.002% p80+5% lysed horse blood. Both agar and microplates containing S. pneumonia were incubated at 37° C. with 5% CO2 for 24 h with constant shaking (600 rpm). […] The cultures were grown to exponential phase (OD600=0.5) at 37° C. […] In polypropylene 96-well microtiter plates, test compounds were added in biological triplicates and serial diluted 2-fold by transfer and mixing from one well to the next to achieve a final volume of 50 μL per well. An equal volume of bacterial suspension (10^6 CFU mL^−1) was added to the wells. The plates were sealed with breathable membranes and incubated at 37° C. for 24 h with constant shaking (600 rpm). In polypropylene microtiter plates, 100 μL of the test compounds was added to the first row in biological triplicates, and 50 μL of media was added to the other wells. The compounds were subjected to serial dilution by transfer and mixing of 50 μL from one well to the next. Subsequently, 50 μL of bacterial suspension (10^6 CFU/mL) was added to the wells. The plates were sealed with breathable membranes and incubated at 37° C. for 24 h with constant shaking (600 rpm). Positive growth control consisted of wells with bacterial suspension and without antibiotic. Negative growth control consisted of solely media without bacterial suspension or antibiotic. The MICs were determined from the median of a minimum of triplicates.

[13] = test system: S. aureus ATCC29123; assay: Lipid II antagonization assay; assay type: cell-based, Staphylococcus aureus; details: for visible bacterial growth with lipid II / visible bacterial growth without lipid II: 8×MIC of test compound, 24 h; for visible bacterial growth with lipid II: 5-fold molar excess of lipid II; for bacterial growth after co-incubation with lipid II: 8×MIC; as to visible bacterial growth with lipid II: key: − means no visible growth; + means visible growth; as to visible bacterial growth without lipid II: key: − means no visible growth; + means visible growth
Method: Lipid II in chloroform was added in the appropriate amount (5-fold molar excess compared to test antibiotics) to a 96-well plate and the chloroform was allowed to evaporate. […] Of these dilutions, 50 μL was mixed with the 5-fold molar excess of pure lipid II in triplicates in the plate as well as added to the plate in triplicates without lipid II present. S. aureus ATCC29123 colonies were suspended in TSB with 0.002% p80 by direct colony suspension to an optical density that reached a level equivalent to the 0.5 McFarlan standard. […] The samples were incubated at 37° C. for 24 h with constant shaking (600 rpm) and inspected for visible bacterial growth. Positive growth control consisted of wells with bacterial suspension and without antibiotic or lipid II. Negative growth control consisted of solely media without bacterial suspension, antibiotic or lipid II.
In the antagonization assay, lipid II is co-incubated with the test antibiotics in the presence of bacterial culture. When lipid II binds the glycopeptides, the binding of these antibiotics to their target in the growing bacterial culture is antagonized. This ultimately results in diminished activity of the antibiotics and bacterial growth which normally would not be visible (at 8×MIC) becomes visible. Therefore, this assay could be used to determine if part of the mechanism of action of our compounds involves binding to lipid II.

[14] = E. faecium E155, VanA (Table 10)
[15] = E. faecium E7314, VanB (Table 10)

Row | SMILES | MIC [1] [µg/mL] | MIC [2] [µg/mL] | MIC [3] [µg/mL] | MIC [4] [µg/mL] | MIC [5, 14] [µg/mL] | MIC ([5]; E. faecium E155 VRE (VanA)) [µg/mL] | MIC [6, 15] [µg/mL] | MIC ([6]; E. faecium E7314 VRE (VanB)) [µg/mL] | MIC [7] [µg/mL] | MIC [8] [µg/mL] | MIC [9] [µg/mL] | MIC [10] [µg/mL] | MIC [11] [µg/mL] | MIC50 [12] [µg/mL] | MIC90 [12] [µg/mL] | visible bacterial growth with lipid II [13] | visible bacterial growth without lipid II [13] | bacterial growth after co-incubation with lipid II [13]
1 | CCCCCCCNC(N)=Nc1ccc(CN[C@@]2(C)C[C@H](O[C@H]3[C@H](Oc4c5cc6cc4Oc4ccc(cc4Cl)[C@@H](O)[C@@H](NC(=O)[C@@H](CC(C)C)NC)C(=O)N[C@@H](CC(N)=O)C(=O)N[C@H]6C(=O)N[C@H]4C(=O)N[C@H](C(=O)N[C@H](C(=O)O)c6cc(O)cc(O)c6-c6cc4ccc6O)[C@H](O)c4ccc(c(Cl)c4)O5)O[C@H](CO)[C@@H](O)[C@@H]3O)O[C@@H](C)[C@H]2O)cc1 [Compound 5] | 2 (≈ 1.18 µM) | ≤0.008 | ≤0.008 | ≤0.008 | 2 (≈ 1.18 µM) | 2 (≈ 1.18 µM) | ≤0.008 | 0.007812 (≈ 0.00461 µM) | 0.01562 (≈ 0.00922 µM) | 0.016 (≈ 0.00944 µM) | 4 (≈ 2.36 µM) | 4 (≈ 2.36 µM) | 0.25 (≈ 0.148 µM) | 1 (≈ 0.59 µM) | 8 (≈ 4.72 µM) | + | − | Bacterial growth was visible
2 | CCCCCCCCNC(N)=Nc1ccc(CN[C@@]2(C)C[C@H](O[C@H]3[C@H](Oc4c5cc6cc4Oc4ccc(cc4Cl)[C@@H](O)[C@@H](NC(=O)[C@@H](CC(C)C)NC)C(=O)N[C@@H](CC(N)=O)C(=O)N[C@H]6C(=O)N[C@H]4C(=O)N[C@H](C(=O)N[C@H](C(=O)O)c6cc(O)cc(O)c6-c6cc4ccc6O)[C@H](O)c4ccc(c(Cl)c4)O5)O[C@H](CO)[C@@H](O)[C@@H]3O)O[C@@H](C)[C@H]2O)cc1 [Compound 6] | 1 (≈ 0.585 µM) | ≤0.008 | ≤0.008 | ≤0.008 | 1 (≈ 0.585 µM) | 1 (≈ 0.585 µM) | ≤0.008 | ≤0.007812 | ≤0.007812 | ≤0.008 | 2 (≈ 1.17 µM) | 2 (≈ 1.17 µM) | 0.063 (≈ 0.0369 µM) | 0.5 (≈ 0.293 µM) | 4 (≈ 2.34 µM) | + | − | Bacterial growth was visible
3 | CCCCCCCCCNC(N)=Nc1ccc(CN[C@@]2(C)C[C@H](O[C@H]3[C@H](Oc4c5cc6cc4Oc4ccc(cc4Cl)[C@@H](O)[C@@H](NC(=O)[C@@H](CC(C)C)NC)C(=O)N[C@@H](CC(N)=O)C(=O)N[C@H]6C(=O)N[C@H]4C(=O)N[C@H](C(=O)N[C@H](C(=O)O)c6cc(O)cc(O)c6-c6cc4ccc6O)[C@H](O)c4ccc(c(Cl)c4)O5)O[C@H](CO)[C@@H](O)[C@@H]3O)O[C@@H](C)[C@H]2O)cc1 [Compound 7] | 0.5 (≈ 0.29 µM) | ≤0.008 | ≤0.008 | ≤0.008 | 0.5 (≈ 0.29 µM) | 0.5 (≈ 0.29 µM) | ≤0.008 | ≤0.007812 | ≤0.007812 | ≤0.008 | 0.5 (≈ 0.29 µM) | 1 (≈ 0.58 µM) | 0.031 (≈ 0.018 µM) | 0.125 (≈ 0.0726 µM) | 1 (≈ 0.58 µM) | + | − | Bacterial growth was visible
4 | CCCCCCN(CCCCCC)C(N)=Nc1ccc(CN[C@@]2(C)C[C@H](O[C@H]3[C@H](Oc4c5cc6cc4Oc4ccc(cc4Cl)[C@@H](O)[C@@H](NC(=O)[C@@H](CC(C)C)NC)C(=O)N[C@@H](CC(N)=O)C(=O)N[C@H]6C(=O)N[C@H]4C(=O)N[C@H](C(=O)N[C@H](C(=O)O)c6cc(O)cc(O)c6-c6cc4ccc6O)[C@H](O)c4ccc(c(Cl)c4)O5)O[C@H](CO)[C@@H](O)[C@@H]3O)O[C@@H](C)[C@H]2O)cc1 [Compound 12] | 1 (≈ 0.567 µM) | ≤0.008 | ≤0.008 | ≤0.008 | 1 (≈ 0.567 µM) | 1 (≈ 0.567 µM) | ≤0.008 | ≤0.007812 | ≤0.007812 | ≤0.008 | 2 (≈ 1.13 µM) | 2 (≈ 1.13 µM) | 0.125 (≈ 0.0708 µM) | 0.25 (≈ 0.142 µM) | 2 (≈ 1.13 µM) |  |  | 
